Earlier results as cited in patent US10214591B1, “Monoclonal antibody to human line-1 ORF2 protein and method for early detection of transforming cells in pre-neoplastic tissues of a human subject” (Alienor Farma, priority 2015, dated 2019).

Legend:
human tumorigenic cells = details: xenografted mice

Row | Compound | effect on tumor progression (human tumorigenic cells) | effect on proliferation and differentiation of cancer cells (tumorigenic cell lines)
1 | O=C1Nc2ccc(Cl)cc2[C@@](C#CC2CC2)(C(F)(F)F)O1 [efavirenz, (S)-6-Chloro-4-(cyclopropylethynyl)-1,4-dihydro-4-(trifluoromethyl)-2H-3,1 benzoxazin-2-one] | arrest, or a significant reduction, of tumor progression | reduced proliferation and enhanced differentiation
2 | Cc1ccnc2c1NC(=O)c1cccnc1N2C1CC1 [nevirapine] |  | reduced proliferation and enhanced differentiation
